Among the data in ChEMBL document CHEMBL3507680, “University of Dundee, Gates Library screen for HepG2 cell viability” are cytotoxicity values, retold here.

This series in a line: Human HepG2 cell viability assay in 384 well format. Format: toxicity, cell-based. Also on record: dose 125 nL, time 70.5 hour; concentration not given beside the values. Particulars: HepG2 cells, read-out: Inhibition.

As for `Cc1nnc(SCC(=O)Nc2csc3nc(=O)c(C)nn23)s1`, the cytotoxicity at 70.5 h worked out at 7.9%. With `O=C(Cc1cnc(-c2c(Cl)cccc2Cl)s1)N1CCOCC1` the figure was -13.9%. Next, `O=C(Cc1cnc(-c2c(Cl)cccc2Cl)s1)N1CCC2(CC1)OCCO2`: -14.1%. Next, `CC(C)NC(=O)CNC(=O)N1CCc2c([nH]c3ccc(Cl)cc23)C1`: -7.52%.

In the case of `O=C(CNC(=O)N1CCc2c([nH]c3ccc(Cl)cc23)C1)NC1CCCC1`, the cytotoxicity at 70.5 h is -0.711%.

With `NC(=O)C1CCN(C(=O)Cc2cnc(-c3c(Cl)cccc3Cl)s2)CC1`, the cytotoxicity at 70.5 h was -13.5%. Next, `CCc1nc2c(c(C)c(C)n2Cc2cccnc2)c(N)c1C`: 0.896%; `O=C1CCCC2=C1C(c1ccc(Cl)cc1Cl)Nc1nonc1N2` (stereo not given): -1.65%. With `CC(=O)N1CCN(C(=O)Cc2cnc(-c3c(Cl)cccc3Cl)s2)CC1` the figure was -13.6%; with `Cc1nn2c(NC(=O)CSc3nccn3C)csc2nc1=O`, 6.49%.

With `CC(C)CNC(=O)Cc1cnc(-n2cccc2)s1`, the cytotoxicity at 70.5 h was -18.5%. As for `CC(C)NC(=O)c1nc(COc2ccc3c(c2)OCO3)no1`, the cytotoxicity at 70.5 h was -8.71%. Take `O=C1CCCC2=C1C(c1cccc(F)c1F)Nc1nonc1N2` (stereo not given): the cytotoxicity at 70.5 h worked out at 1.2%. Next, `N#CC1=C(N)Nn2c(nnc2-c2ccccc2F)S1`: -36.2%; `Cc1nnc(SC2CCc3ccccc3NC2=O)n1C` (stereo not given): -23%. Next, `CN1CCN(CCCNC(=O)c2nc3ccccc3c(=O)[nH]2)CC1`: -19.4%; `CC(C)CCNC(=O)Cc1cnc(-n2cccc2)s1`: -21%.

Regarding `CC(=O)Nc1ccc(OCc2noc(C(=O)N3CCCC3)n2)cc1`, the cytotoxicity at 70.5 h was -14.2%. With `CCC(C)[C@H](NC(=O)c1cc(F)ccc1-n1cnnn1)C(=O)OC` (stereo not given in full) the figure was -13.4%; with `O=C(Cc1noc(C(=O)NCCO)n1)Nc1cccc(C(F)(F)F)c1`, -22.4%; with `COc1cc2c(cc1OC)C(=O)C(Sc1nnnn1C)C2` (stereo not given), -18.6%. As to `O=S1(=O)CCC(S(=O)(=O)c2cccc(S(=O)(=O)N3CCCC3)c2)C1` (stereo not given), the cytotoxicity at 70.5 h was -12.1%. For `COc1ccccc1N1CCN(c2nc(N)nc3[nH]cnc23)CC1`, the cytotoxicity at 70.5 h is -11.3%.

Consider `CC(C)c1ccc2c(c1)C1(CC(=O)Nc3[nH]ncc31)C(=O)N2C` (stereo not given), for which the cytotoxicity at 70.5 h was -19.6%.

As to `c1ccc(CNc2nc(N3CCOCC3)nc3nccnc23)cc1`, the cytotoxicity at 70.5 h is -12.1%.

In the case of `Cn1ccnc1SC1CCc2ccccc2NC1=O` (stereo not given), the cytotoxicity at 70.5 h is -23.5%. Next, `CCOC(=O)c1nc(CC(=O)Nc2ccccc2)no1`: -17.6%. With `COCC(=O)N(Cc1ccc2[nH]ccc2c1)C1CC1` the figure was -25.2%; with `Cc1nc2oc(C(=O)N3CCCC3)c(N)c2c2c1CCCC2`, -16.9%; with `O=C(Cc1cnc(-n2cccc2)s1)NCCCO`, -25%. Take `CCOC(=O)c1nc(COc2c(C)occc2=O)no1`: the cytotoxicity at 70.5 h was -20.5%. Consider `Cc1cc(C)n(Cc2ccc(-c3noc(C(=O)NCCCO)n3)cc2)n1`, for which the cytotoxicity at 70.5 h was -21.4%. As to `Cc1occc(=O)c1OCc1noc(C(=O)NCC2CC2)n1`, the cytotoxicity at 70.5 h was -16.6%. Next, `N#Cc1nc(COc2ccc3c(c2)OCO3)oc1NC1CC1`: -28.4%.

Turning to `C[C@@H](O)CNC(=O)c1nc(CC(=O)Nc2ccccc2)no1`, the cytotoxicity at 70.5 h is -19.3%. With `COC(=O)[C@H](CC(C)C)NC(=O)c1snnc1-c1ccc(OC)cc1` the figure was 10.9%. With `Cc1nc(NC(=O)c2c(-n3cnnn3)sc3c2CCC3)sc1C` the figure was -5.79%; with `CC(=O)CSc1sc2c(O)cc(=O)[nH]c2c1C(N)=O`, -12.7%; with `CN1C(=O)COc2ccc(C(=O)Cn3cnc4ccccc4c3=O)cc21`, -12%. Next, `COC(=O)c1cc2c(=O)n(C3CCCC3)ccc2nc1C`: -15.4%. Regarding `CC(C)C[C@H](NC(=O)NC1CCS(=O)(=O)C1)C(=O)NCc1cccnc1` (stereo not given in full), the cytotoxicity at 70.5 h is -16%. As for `CN1CCN(C(=O)c2cc3occc3n2Cc2ccccc2F)CC1`, the cytotoxicity at 70.5 h is -10.6%. For `Cc1cccc(NC(=O)C2(n3cnnn3)CCCCC2)n1`, the cytotoxicity at 70.5 h was -26.9%.

As for `COc1coc(C(=O)Nc2ccncc2)cc1=O`, the cytotoxicity at 70.5 h was -12.7%. On to `CC(=O)NCCNC(=O)c1cnc(C(C)(C)C)s1`, for which the cytotoxicity at 70.5 h is -8.27%. Next, `CN(CCOc1cccc(F)c1)Cc1nc2c(cnn2C)c(=O)[nH]1`: -8.53%; `CNC(=O)NC(=O)CCN1CCN(c2ccc(C(=O)OC)cc2)CC1C` (stereo not given): -9.55%; `CC(=O)N1CCC(C(=O)NCc2cc[nH]n2)(c2ccccc2)CC1`: -5.74%. With `CC(C)(C)c1ncc(C(=O)NC(C(N)=O)c2ccccc2)s1` (stereo not given) the figure was 15.8%; with `O=C(NCc1cc[nH]n1)N1CCCC(N2CCCC2)C1` (stereo not given), -4.82%. With `COc1c(CNC2CCN(c3ccccn3)CC2)c(C(C)C)nn1C` the figure was 5.04%; with `CC(C(=O)N1CCCN(c2ccccc2C#N)CC1)n1cccn1` (stereo not given), -7.8%. For `CC(C(=O)N1CCCN(c2ccc(C#N)cc2)CC1)n1cccn1` (stereo not given), the cytotoxicity at 70.5 h was -3.9%. Next, `Cc1cnn(C2CCCN(C(=O)Cc3c(C)nn(C)c3C)C2)c1` (stereo not given): 0.294%; `Cc1ncc2c(n1)CN(CC(=O)Nc1nnc(C)s1)CC2`: -8.66%; `Cc1ncc2c(n1)CN(CC(=O)Nc1cc(C)on1)CC2`: -5.61%. Next, `COC(=O)c1ccc(N2CCN(CC(=O)NC(N)=O)C(C)C2)cc1` (stereo not given): -3.82%; `Cc1ccc(F)c(NS(=O)(=O)c2cc3c(c(C(=O)O)c2)OCCO3)c1`: 2.59%.

`O=C(O)c1cc(S(=O)(=O)Nc2ccc(F)cc2F)cc2c1OCCO2`: the cytotoxicity at 70.5 h is -2.86%. With `Cc1cc(F)ccc1NS(=O)(=O)c1cc2c(c(C(=O)O)c1)OCCO2` the figure was -4.92%; with `Cn1ccnc1CN1CCCN(C(=O)c2ccc(O)nc2)CC1`, -4.72%; with `Cn1ccnc1CN1CCCN(C(=O)c2ccc3[nH]nnc3c2)CC1`, -4.07%. `CCCc1n[nH]c(C2CN(C(=O)c3cccnc3N(C)C)CCO2)n1` (stereo not given): the cytotoxicity at 70.5 h was -0.878%. With `CN1CC(C(=O)NCCOc2ccc3c(c2)OCO3)CC1=O` (stereo not given) the figure was -1.1%; with `Cn1ncc2c(=O)[nH]c(CN3CCCC3CC(C)(C)C)nc21` (stereo not given), -4%. Next, `Cn1ncc2c(=O)[nH]c(CN3CCCC3CCc3ccccc3)nc21` (stereo not given): -1.66%; `CCn1cc(NC(=O)C2CCN(CC(=O)NC3CCCC3)CC2)cn1`: -0.528%.

`O=C(CCc1ccccc1F)N1CCC(Nc2cccnn2)CC1`: the cytotoxicity at 70.5 h is -1.09%. With `Cc1nc(C)n(CC2CCCN(c3ccc(C#N)cn3)C2)n1` (stereo not given), the cytotoxicity at 70.5 h is -3.58%. With `O=C(c1csc(-c2ccccn2)n1)N1CCCC1Cn1cccn1` (stereo not given) the figure was -2.56%; with `O=C(c1csc(C2CC2)n1)N1CCCCC1Cn1cccn1` (stereo not given), 21.8%; with `Cc1cc(NC(=O)CN(C)C2CCCN(c3cccnn3)C2)on1` (stereo not given), 23.1%. With `O=C(c1csc(-c2cnccn2)n1)N1CCCC1Cn1cccn1` (stereo not given) the figure was 2.23%. In the case of `O=C(c1csc(-c2ncccn2)n1)N1CCCC1Cn1cccn1` (stereo not given), the cytotoxicity at 70.5 h was determined as 22.5%. Take `O=C(CCOc1ccccc1F)N1CCCCC1Cn1cccn1` (stereo not given): the cytotoxicity at 70.5 h was -4.38%.

For the compound `Cc1nc(C)n(CC2CN(Cc3cc(C#N)ccc3F)CCO2)n1` (stereo not given), the cytotoxicity at 70.5 h is -1.96%.

In the case of `Cc1nc(C)n(CC2CN(c3ncccc3C#N)CCO2)n1` (stereo not given), the cytotoxicity at 70.5 h was -0.989%. With `CN(CC(=O)NCc1ccccn1)C1CCCN(c2cccnn2)C1` (stereo not given) the figure was 0.301%; with `Cc1nccn1C1CCCN(C(=O)c2ccc3nnc(C)n3c2)C1` (stereo not given), 14.1%. With `CC(C)(C)C(=O)NCCC(=O)N1CCC(Nc2cccnn2)CC1` the figure was -0.84%; with `Cc1cccc(-c2nc(CNC3CCc4nc(C)nn4C3)no2)c1` (stereo not given), -3.36%.

As for `CC(=O)N(Cc1ncc(C)o1)C1CCN(CCc2cccs2)C1` (stereo not given), the cytotoxicity at 70.5 h turned out to be 17.8%. Next, `CCc1nc(CN(C(C)=O)C2CCN(CCc3cccs3)C2)no1` (stereo not given): 13%; `CC(C)(C)c1nc(CN2CCOC(Cn3cncn3)C2)cs1` (stereo not given): 1.47%. Take `CCOc1cc(C(=O)N2CCCC(c3noc(C(C)C)n3)C2)ccn1` (stereo not given): the cytotoxicity at 70.5 h was -3.39%. As for `CC(C)c1nc(CN2CCOC(Cn3cncn3)C2)cs1` (stereo not given), the cytotoxicity at 70.5 h is -3.19%. `COCCN1CCC(CNC(=O)C2(c3cc(C)cc(C)c3)CC2)CC1`: the cytotoxicity at 70.5 h is -1.48%. With `CCc1cnc(CN(C(C)=O)C2CCN(CC3(O)CCCCC3)C2)o1` (stereo not given) the figure was 13.4%; with `COCCN1CCC(CNC(=O)C2(c3cccc(Cl)c3)CC2)C1` (stereo not given), -0.451%. Turning to `COCCN1CCC(CNC(=O)C2(c3ccccc3)CCOCC2)C1` (stereo not given), the cytotoxicity at 70.5 h is -4.78%.

In the case of `COc1ccc(C2CCCN2Cc2ccc(S(=O)(=O)N(C)C)o2)cc1` (stereo not given), the cytotoxicity at 70.5 h was -1.88%. With `O=C(CN1CCCC1Cn1cncn1)NCCOc1ccccc1` (stereo not given) the figure was -2.53%; with `CN(C)S(=O)(=O)c1ccc(CN2CCCC2c2cccs2)o1` (stereo not given), 15.3%; with `Cn1cc(-c2nc(CN3CCOC(Cn4cncn4)C3)cs2)cn1` (stereo not given), 1.83%.

In the case of `CCOc1ccc(C(=O)N(Cc2cnn(C)c2)C(C)C)cc1OCC`, the cytotoxicity at 70.5 h is -3.25%. `CCCN1CCC(CNC(=O)C2(c3cc(C)cc(C)c3)CCC2)C1` (stereo not given): the cytotoxicity at 70.5 h amounted to 16.9%.

With `CCc1cnc(CN(C(C)=O)C2CCN(CCc3ccncc3)C2)o1` (stereo not given), the cytotoxicity at 70.5 h is -1.81%. Next, `COc1ccc(C2=CCN(C(=O)C3CCC3)CC2)cc1`: -1.58%; `CN(C)C(=O)CCS(=O)(=O)Cc1cc(Cl)c2c(c1)OCO2`: -3.5%; `COCCN1CCC(CNC(=O)C2(c3ccc(F)cc3)CCC2)CC1`: -0.878%.
